# Reference: patent publication US8754209B2, “Indazole derivatives or pharmaceutically acceptable salts thereof as protein kinase inhibitors for proliferative diseases treatment, and a pharmaceutical composition containing the same as an active ingredient” (Korea Institute of Science and Technology, priority 2009, dated 2014)
# Columns and labels:
# B-Raf-V600E = B-Raf-V600E (Homo sapiens, UniProt P15056, V600E); experiment: B-Raf kinase enzyme assay (MEK1/Erk2 cascade, MBP phosphorylation, 32P); format: biochemical; conditions: read-out: b-raf-V600Ekinase inhibitory activity (IC50)
# B-Raf-V600E, sequence (P15056 whole entry V600E): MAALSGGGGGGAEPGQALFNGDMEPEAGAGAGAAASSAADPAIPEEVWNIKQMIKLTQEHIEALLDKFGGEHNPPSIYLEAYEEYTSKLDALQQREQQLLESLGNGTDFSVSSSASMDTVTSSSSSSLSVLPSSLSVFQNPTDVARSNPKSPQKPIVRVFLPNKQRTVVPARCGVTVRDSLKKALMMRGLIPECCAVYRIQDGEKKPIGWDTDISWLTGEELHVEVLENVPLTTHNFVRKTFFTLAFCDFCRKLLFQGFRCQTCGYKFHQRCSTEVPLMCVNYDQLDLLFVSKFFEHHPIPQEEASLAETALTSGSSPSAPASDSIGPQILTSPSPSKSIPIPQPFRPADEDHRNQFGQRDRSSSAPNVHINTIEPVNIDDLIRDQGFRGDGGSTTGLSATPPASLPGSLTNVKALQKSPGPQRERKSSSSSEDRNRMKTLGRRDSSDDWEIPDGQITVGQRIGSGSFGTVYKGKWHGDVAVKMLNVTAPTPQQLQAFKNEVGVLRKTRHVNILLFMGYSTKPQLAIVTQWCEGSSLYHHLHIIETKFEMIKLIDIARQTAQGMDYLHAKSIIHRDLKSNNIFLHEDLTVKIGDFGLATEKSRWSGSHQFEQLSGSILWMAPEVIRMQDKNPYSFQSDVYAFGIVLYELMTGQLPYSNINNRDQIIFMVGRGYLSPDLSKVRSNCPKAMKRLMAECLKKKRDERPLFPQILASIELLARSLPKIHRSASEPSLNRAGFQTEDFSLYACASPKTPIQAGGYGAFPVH
# Procedure: <1-1> Activation of MAP Kinase 2/Erk2 by B-raf
# 10 μl magnesium chloride/ATP solution (500 uM ATP, 75 mM magnesium chloride) was seeded in eppendorf tube. 2.5 μl B-Raf-V600E was seed (final conc. 1 ng) in eppendorf tube and treated with 1.6 μl deactivated MEK1 (final conc. 0.4 μg). The mixture was treated with 4 μl deactivated MAP kinase 2/Erk2 (final conc. 1.0 ug). And the mixture was treated with 1 μl example solution (10 mM) dissolved in dimethyl sulfoxide which was orderly diluted. Then, assay dilution buffer I (ADBI I) was added thereto (final vol. 38 μl) to make the final volume of 38 μl, and made it reacted at 30° C. for 30 min. 5 μl of resulting solution was used for the following experiment.
# <1-2> Phosphorylation of Myelin basic protein (MBP)
# 5 μl of the above resulting solution was treated with 10 μl assay dilution buffer, and then treated with 10 μl Myelin basic protein (MBP, 2 mg/Ml). The mixture solution was treated with 10 μl of diluted (1/10) [γ^32P] ATP (100 uCi/vial) which is diluted at 30° C. for 10 min. 25 μl of the mixture solution was spotted onto a P81 paper, and the paper was washed four times with 0.75% phosphoric acid for 10 min and once with acetone for 5 min in scintillation vial. After 5 Ml of scintillation cocktail solution was added in the scintillation vial, signals were analyzed by scintillation counter.
# A375P cells = experiment: Anti-proliferative activity on A375P cell line (MTT assay); format: cell-based; conditions: A375P human melanoma cell line
# Procedure: A375P cells were purchased from American Type Culture Collection (ATCC, Rockville, Md., US) and maintained in DMEM medium (Welgene, Daegu, Korea) supplemented with 10% FBS (Welgene) and 1% penicillin/streptomycin (Welgene) in a humidified atmosphere with 5% CO2 at 37° C. The A375P cells were taken from culture substrate with 0.05% trypsin-0.02% EDTA and plated at a density of 5×10^3 cells/well in 96 well plates and then incubated at 37° C. for 24 h in a humidified atmosphere with 5% CO2 prior to treatment of various concentration (three fold serial dilution, 12 points) of test compounds. The A357P cell viability was assessed by the conventional 3-(4,5-dimethylthiazol-2-yl)-2,5-diphenyltetrazolium bromide (MTT) reduction assay. MTT assays were carried out with CellTiter 96 (Promega) according to the manufacturer's instructions.
# After 1 day, 0.5 μl the representative compounds of the examples were added thereto. The representative compounds of the examples were prepared by three fold serial dilution of 10 mM stock solution in DMSO, 12 point (final conc. DMSO 0.5%). Then, 15 μl dye was added in each well. After 2 h, 100 μl stop solution was added each well. After 24 h, absorbance was measured. The absorbance at 590 nm was recorded using EnVision2103 (PerkinElmer; Boston, Mass., US). The IC50 value was calculated using GraphPad Prism 4.0 software.
# T3151-Bcr-Abl = conditions: cited from earlier work
# [1] = cited from earlier work
# A375 melanoma cell line = conditions: raf-V660E overexpression cell strain; read-out: anti-proliferative activity IC50, A375 melanoma cell line; cited from earlier work
Structure (SMILES),IC50 (B-Raf-V600E) [µM],GI50 (A375P cells) [µM],further results
"CCOC(=O)c1n[nH]c2cc(-c3ccc(NC(=O)Nc4ccc(Cl)c(C(F)(F)F)c4)cc3)ccc12 [Example 21, ethyl 6-(4-(3-(4-chloro-3-(trifluoromethyl)phenyl)ureido)phenyl)-1H-indazole-3-carboxylate]",< 10,< 10,
Cc1cn(-c2cc(NC(=O)c3ccc(C)c(Nc4nccc(-c5cccnc5)n4)c3)cc(C(F)(F)F)c2)cn1 [Nilotinib],,,activity on T3151-Bcr-Abl (T3151-Bcr-Abl): inactive
"CCOC(=O)c1n[nH]c2cc(-c3ccc(NC(=O)c4csc(-c5ccncc5)n4)cc3)ccc12 [Example 17, ethyl 6-(4-(2-(pyridin-4-yl)thiazole-4-carboxamido)phenyl)-1H-indazole-3-carboxylate]",< 10,,
"CCOC(=O)c1n[nH]c2cc(-c3ccc(NC(=O)c4cnn(-c5ccc(OC)cc5)c4C(F)(F)F)cc3)ccc12 [Example 8, ethyl 6-(4-(1-(4-methoxyphenyl)-5-(trifluoromethyl)-1H-pyrazole-4-carboxamido)phenyl)-1H-indazole-3-carboxylate]",< 10,< 10,
"CCOC(=O)c1n[nH]c2cc(-c3ccc(NC(=O)c4cccc(C(F)(F)F)c4)cc3)ccc12 [Example 2, ethyl 6-(4-(3-(trifluoromethyl)benzamido)phenyl)-1H-indazole-3-carboxylate]",,< 10,
"O=C(Nc1ccc(-c2ccc3c(C(=O)NCCN4CCOCC4)n[nH]c3c2)cc1)c1cccc(C(F)(F)F)c1 [Example 30, N-(2-morpholinoethyl)-6-(4-(3-(trifluoromethyl)benzamido)phenyl)-1H-indazole-3-carboxamide]",,< 10,
CNC(=O)c1cc(Oc2ccc(NC(=O)Nc3ccc(Cl)c(C(F)(F)F)c3)cc2)ccn1 [Sorafenib],,,"skin toxicity side effect, grade ([1]; 600 mg twice a day): 3; MTD (maximum tolerated dose) ([1]; twice a day, phase II clinical investigation): 400 mg"
"CNC(=O)c1n[nH]c2cc(-c3ccc(NC(=O)c4cccc(C(F)(F)F)c4)cc3)ccc12 [Example 24, N-methyl-6-(4-(3-(trifluoromethyl)benzamido)phenyl)-1H-indazole-3-carboxamide]",< 10,< 10,
"CCOC(=O)c1n[nH]c2cc(-c3ccc(NC(=O)c4ccc(OC)c5ccc(OC)cc45)cc3)ccc12 [Example 15, ethyl 6-(4-(4,7-dimethoxy-1-naphthamido)phenyl)-1H-indazole-3-carboxylate]",,< 10,
"CCOC(=O)c1n[nH]c2cc(-c3ccc(NC(=O)Nc4cc(C(F)(F)F)cc(C(F)(F)F)c4)cc3)ccc12 [Example 22, ethyl 6-(4-(3-(3,5-bis(trifluoromethyl)phenyl)ureido)phenyl)-1H-indazole-3-carboxylate]",,< 10,
CCCS(=O)(=O)Nc1ccc(F)c(C(=O)c2c[nH]c3ncc(Cl)cc23)c1F [PLX-4720],,,IC50 (A375 melanoma cell line): 0.5 µM

# Continued, in another order:
IC50 (B-Raf-V600E) [µM],GI50 (A375P cells) [µM],Structure (SMILES),further results
< 10,< 10,"CCOC(=O)c1n[nH]c2cc(-c3cccc(NC(=O)Cc4ccc(OC)c(OC)c4)c3)ccc12 [Example 48, ethyl 6-(3-(2-(3,4-dimethoxyphenyl)acetamido)phenyl)-1H-indazole-3-carboxylate]",
< 10,< 10,"O=C(Nc1cccc(-c2ccc3c(C(=O)NCCN4CCOCC4)n[nH]c3c2)c1)Nc1ccc(Cl)c(C(F)(F)F)c1 [Example 58, 6-(3-(3-(4-chloro-3-(trifluoromethyl)phenyl)ureido)phenyl)-N-(2-morpholinoethyl)-1H-indazole-3-carboxamide]",
,< 10,"CCOC(=O)c1n[nH]c2cc(-c3cccc(NC(=O)c4cc(C)on4)c3)ccc12 [Example 46, ethyl 6-(3-(5-methylisoxazole-3-carboxamido)phenyl)-1H-indazole-3-carboxylate]",
,< 10,"COC(=O)c1n[nH]c2cc(-c3cccc(NC(=O)c4ccc(OC5CCN(C)CC5)c(C(F)(F)F)c4)c3)ccc12 [Example 78, methyl 6-(3-(4-(1-methylpiperidin-4-yloxy)-3-(trifluoromethyl)benzamido)phenyl)-1H-indazole-3-carboxylate]",
,< 10,"CNC(=O)c1n[nH]c2cc(-c3cc(NC(=O)Nc4cc(-n5cnc(C)c5)cc(C(F)(F)F)c4)ccc3C)ccc12 [Example 75, N-methyl-6-(2-methyl-5-(3-(3-(4-methyl-1H-imidazol-1-yl)-5-(trifluoromethyl)phenyl)ureido)phenyl)-1H-indazole-3-carboxamide]",
,< 10,"CNC(=O)c1n[nH]c2cc(-c3cc(NC(=O)c4cc(-n5cnc(C)c5)cc(C(F)(F)F)c4)ccc3C)ccc12 [Example 73, N-methyl-6-(2-methyl-5-(3-(4-methyl-1H-imidazol-1-yl)-5-(trifluoromethyl)benzamido)phenyl)-1H-indazole-3-carboxamide]",
,< 10,"CCNC(=O)c1n[nH]c2cc(-c3cccc(NC(=O)Nc4cccc(Cl)c4Cl)c3)ccc12 [Example 61, 6-(3-(3-(2,3-dichlorophenyl)ureido)phenyl)-N-ethyl-1H-indazole-3-carboxamide]",
,< 10,"COC(=O)c1n[nH]c2cc(-c3cccc(NC(=O)Nc4ccc(N5CCN(C)CC5)c(C(F)(F)F)c4)c3)ccc12 [Example 70, methyl 6-(3-(3-(4-(4-methylpiperazin-1-yl)-3-(trifluoromethyl)phenyl)ureido)phenyl)-1H-indazole-3-carboxylate]",
,< 10,"O=C(Nc1ccc(-c2ccc3c(C(=O)NCCN4CCOCC4)n[nH]c3c2)cc1)c1cc2ccccc2s1 [Example 32, 6-(4-(benzo[b]thiophene-2-carboxamido)phenyl)-N-(2-morpholinoethyl)-1H-indazole-3-carboxamide]",
< 10,< 10,"CCOC(=O)c1n[nH]c2cc(-c3cc(NC(=O)Nc4ccc(Cl)c(C(F)(F)F)c4)ccc3C)ccc12 [Example 57, ethyl 6-(5-(3-(4-chloro-3-(trifluoromethyl)phenyl)ureido)-2-methylphenyl)-1H-indazole-3-carboxylate]",
< 10,< 10,"O=C(Nc1cccc(-c2ccc3c(CO)n[nH]c3c2)c1)Nc1ccc(Cl)c(C(F)(F)F)c1 [Example 79, 1-(4-chloro-3-(trifluoromethyl)phenyl)-3-(3-(3-(hydroxymethyl)-1H-indazol-6-yl)phenyl)urea]",
< 10,,"O=C(Nc1cccc(-c2ccc3c(C(=O)NCCN4CCOCC4)n[nH]c3c2)c1)c1cccc(C(F)(F)F)c1 [Example 50, N-(2-morpholinoethyl)-6-(3-(3-(trifluoromethyl)benzamido)phenyl)-1H-indazole-3-carboxamide]",
,< 10,"Cc1cc(C(=O)Nc2ccc(-c3ccc4c(C(=O)NCCN5CCOCC5)n[nH]c4c3)cc2)c(C)o1 [Example 33, 6-(4-(2,5-dimethylfuran-3-carboxamido)phenyl)-N-(2-morpholinoethyl)-1H-indazole-3-carboxamide]",
< 10,< 10,"CCOC(=O)c1n[nH]c2cc(-c3cccc(NC(=O)Nc4cccc(Cl)c4Cl)c3)ccc12 [Example 54, ethyl 6-(3-(3-(2,3-dichlorophenyl)ureido)phenyl)-1H-indazole-3-carboxylate]",
,< 10,"CNC(=O)c1n[nH]c2cc(-c3ccc(NC(=O)c4ccc(OC5CCN(C)CC5)c(C(F)(F)F)c4)cc3)ccc12 [Example 40, N-methyl-6-(4-(4-(1-methylpiperidin-4-yloxy)-3-(trifluoromethyl)benzamido)phenyl)-1H-indazole-3-carboxamide]",
,< 10,"CNC(=O)c1n[nH]c2cc(-c3ccc(NC(=O)c4cc(-n5cnc(C)c5)cc(C(F)(F)F)c4)cc3)ccc12 [Example 39, N-methyl-6-(4-(3-(4-methyl-1H-imidazol-1-yl)-5-(trifluoromethyl)benzamido)phenyl)-1H-indazole-3-carboxamide]",
